In ChEMBL document CHEMBL3860089, “Design, synthesis, and biological evaluation of α-hydroxyacyl-AMS inhibitors of amino acid adenylation enzymes” (Bioorg Med Chem Lett, 2016):

Tests used:
[1] = target: T1, Yersiniabactin biosynthetic protein (Yersinia pestis, UniProt A0A2S9PH42)
[2] = Inhibition of aminoacyl tRNA synthetase in T7 coupled rabbit reticulocyte lysate assessed as reduction in transcription/translation of luciferase template DNA propagated in Escherichia coli DH5alpha after 90 mins; parameters: species or system Oryctolagus cuniculus
[3] = target: T1, Yersiniabactin biosynthetic protein; conditions: read-out: Ki(app)
[4] = Drug uptake in Escherichia coli ATCC 25922 at 100 uM by LC-MS/Ms analysis; assay type: ADME; conditions: escherichia coli atcc 25922, 100 µM
[5] = Drug uptake in Mycobacterium smegmatis ATCC 700084 at 100 uM by LC-MS/Ms analysis; assay type: ADME; conditions: mycolicibacterium smegmatis
[6] = Drug uptake in Bacillus subtilis ATCC 6051 at 100 uM by LC-MS/Ms analysis; assay type: ADME

T1 sequence (A0A2S9PH42 whole entry): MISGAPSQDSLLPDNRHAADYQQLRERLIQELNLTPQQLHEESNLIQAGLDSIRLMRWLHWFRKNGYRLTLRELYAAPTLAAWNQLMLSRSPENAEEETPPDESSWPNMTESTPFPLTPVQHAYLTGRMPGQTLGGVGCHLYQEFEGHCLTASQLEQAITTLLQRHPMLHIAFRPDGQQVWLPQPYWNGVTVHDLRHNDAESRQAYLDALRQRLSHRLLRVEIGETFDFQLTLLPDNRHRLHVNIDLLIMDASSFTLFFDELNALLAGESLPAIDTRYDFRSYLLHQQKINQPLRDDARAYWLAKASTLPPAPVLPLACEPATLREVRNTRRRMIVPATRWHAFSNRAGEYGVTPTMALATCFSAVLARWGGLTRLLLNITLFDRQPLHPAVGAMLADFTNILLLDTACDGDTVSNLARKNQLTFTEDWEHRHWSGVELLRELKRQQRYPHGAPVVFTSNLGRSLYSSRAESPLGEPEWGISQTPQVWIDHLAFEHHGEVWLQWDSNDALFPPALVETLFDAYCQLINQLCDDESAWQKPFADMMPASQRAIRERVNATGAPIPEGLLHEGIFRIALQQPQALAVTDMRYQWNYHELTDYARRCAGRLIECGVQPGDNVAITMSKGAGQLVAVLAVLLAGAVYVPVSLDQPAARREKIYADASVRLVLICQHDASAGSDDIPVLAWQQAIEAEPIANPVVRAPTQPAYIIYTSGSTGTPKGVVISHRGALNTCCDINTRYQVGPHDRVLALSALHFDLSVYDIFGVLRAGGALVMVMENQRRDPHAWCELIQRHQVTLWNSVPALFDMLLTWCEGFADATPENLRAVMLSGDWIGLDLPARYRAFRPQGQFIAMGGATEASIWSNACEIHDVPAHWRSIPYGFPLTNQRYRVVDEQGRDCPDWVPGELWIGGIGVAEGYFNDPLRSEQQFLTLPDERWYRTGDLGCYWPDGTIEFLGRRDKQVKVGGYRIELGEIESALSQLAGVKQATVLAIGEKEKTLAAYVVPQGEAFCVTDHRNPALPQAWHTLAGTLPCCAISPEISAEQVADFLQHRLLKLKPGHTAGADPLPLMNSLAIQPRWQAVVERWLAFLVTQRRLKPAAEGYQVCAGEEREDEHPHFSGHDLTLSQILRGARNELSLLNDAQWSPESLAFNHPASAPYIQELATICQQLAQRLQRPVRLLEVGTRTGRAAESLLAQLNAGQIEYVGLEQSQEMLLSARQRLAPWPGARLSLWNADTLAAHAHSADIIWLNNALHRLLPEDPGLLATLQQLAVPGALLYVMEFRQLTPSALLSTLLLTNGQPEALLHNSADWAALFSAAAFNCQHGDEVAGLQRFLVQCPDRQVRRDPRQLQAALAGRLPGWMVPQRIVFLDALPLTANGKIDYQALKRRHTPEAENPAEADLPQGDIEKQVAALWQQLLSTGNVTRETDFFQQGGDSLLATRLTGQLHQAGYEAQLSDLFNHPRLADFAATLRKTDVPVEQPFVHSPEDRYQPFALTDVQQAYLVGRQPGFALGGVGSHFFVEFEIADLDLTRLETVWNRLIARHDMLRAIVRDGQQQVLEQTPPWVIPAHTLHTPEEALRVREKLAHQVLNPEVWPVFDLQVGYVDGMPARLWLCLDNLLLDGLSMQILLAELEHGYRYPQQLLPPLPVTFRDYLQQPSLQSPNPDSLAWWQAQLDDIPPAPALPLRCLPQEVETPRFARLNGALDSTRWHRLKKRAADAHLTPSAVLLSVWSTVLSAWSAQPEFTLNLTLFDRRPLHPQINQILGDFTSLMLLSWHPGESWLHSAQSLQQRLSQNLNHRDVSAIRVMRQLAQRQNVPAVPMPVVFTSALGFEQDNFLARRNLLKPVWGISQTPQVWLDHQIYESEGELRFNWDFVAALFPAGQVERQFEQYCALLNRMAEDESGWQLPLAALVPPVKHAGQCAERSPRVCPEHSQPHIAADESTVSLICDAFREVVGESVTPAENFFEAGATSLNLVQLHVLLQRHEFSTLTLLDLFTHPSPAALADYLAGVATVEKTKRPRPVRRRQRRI

| Structure (SMILES) | IC50 [1] [µM] | IC50 [2] [µM] | Ki [3] [µM] | Drug uptake [4] [µM] | Drug uptake [5] [µM] | Drug uptake [6] [µM] | Drug uptake ([4]; BLD = below limit of detection) | Drug uptake ([5]; BLD = below limit of detection) | Drug uptake ([6]; BLD = below limit of detection) |
| --- | --- | --- | --- | --- | --- | --- | --- | --- | --- |
| Nc1ncnc2c1ncn2[C@@H]1O[C@H](COS(=O)(=O)NC(=O)[C@@H](N)CS)[C@@H](O)[C@H]1O | 0.04 | 3.27 | 0.24 | – | – | – | – | – | – |
| C[C@H](O)C(=O)NS(=O)(=O)OC[C@H]1O[C@@H](n2cnc3c(N)ncnc32)[C@H](O)[C@@H]1O | > 1000 | 166 | – | 28 to 53 | 28 to 53 | 28 to 53 | – | – | – |
| Nc1ncnc2c1nc1n2[C@@H]2O[C@H](COS(=O)(=O)NC(=O)[C@@H](N)CCC1)[C@@H](O)[C@H]2O | 0.34 | > 250 | 1.7 | – | – | – | – | – | – |
| Nc1ncnc2c1ncn2[C@@H]1O[C@H](COS(=O)(=O)NC(=O)[C@@H](O)CS)[C@@H](O)[C@H]1O | 16.5 | 222 | – | – | – | – | – | – | – |
| Nc1ncnc2c1nc1n2[C@@H]2O[C@H](COS(=O)(=O)NC(=O)[C@@H](O)CCC1)[C@@H](O)[C@H]2O | > 1000 | > 250 | – | – | – | – | – | – | – |
| C[C@H](N)C(=O)NS(=O)(=O)OC[C@H]1O[C@@H](n2cnc3c(N)ncnc32)[C@H](O)[C@@H]1O [ALASA] | 1.15 | 0.118 to 0.16 | 2.5 | – | – | – | Bld | Bld | Bld |
